{"source": "paper PMC12586182", "about": "(Frontiers in Oncology, 2025)", "test_in_all_cases": "Cell viability assay (ATPlite)", "type_in_all_cases": "cell-based", "key": {"A-204": {"test_system": "A-204", "settings": "Homo sapiens, A204; A-204 cell line, 72 hours incubation", "summary_of_the_method": "(§1)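 Cells grew 24 h, then received 9-point √10-fold compound series in duplicate (0.4% DMSO final) for 72 h. ATP content was read by ATPlite luminescence and normalized to vehicle controls as % viability. IC50 came from a four-parameter logistic fit; curves with F-value above 1.5 were invalidated, with IC50 then set at the top concentration.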"}, "TT": {"test_system": "TT", "settings": "Homo sapiens; TT cell line, 72 hours incubation", "summary_of_the_method": "as §1"}, "RD": {"test_system": "RD", "settings": "Homo sapiens; RD cell line, 72 hours incubation", "summary_of_the_method": "as §1"}, "TCCSUP": {"test_system": "TCCSUP", "settings": "Homo sapiens, TCC-SUP; TCCSUP cell line, 72 hours incubation", "summary_of_the_method": "as §1"}, "CAL-27": {"test_system": "CAL-27", "settings": "Homo sapiens; CAL-27 cell line, 72 hours incubation", "summary_of_the_method": "as §1"}, "Kasumi-1": {"test_system": "Kasumi-1", "settings": "Homo sapiens; Kasumi-1 cell line, 72 hours incubation", "summary_of_the_method": "as §1"}, "769-P": {"test_system": "769-P", "settings": "Homo sapiens; 769-P cell line, 72 hours incubation", "summary_of_the_method": "as §1"}, "MCF-7": {"test_system": "MCF-7", "settings": "Homo sapiens, MCF7; MCF-7 cell line, 72 hours incubation", "summary_of_the_method": "as §1"}, "MV4-11": {"test_system": "MV4-11", "settings": "Homo sapiens; MV4-11 cell line, 72 hours incubation", "summary_of_the_method": "as §1"}, "5637": {"test_system": "5637", "settings": "Homo sapiens; 5637 cell line, 72 hours incubation", "summary_of_the_method": "as §1"}, "JM-1": {"test_system": "JM-1", "settings": "Homo sapiens, JM1; JM-1 cell line, 72 hours incubation", "summary_of_the_method": "as §1"}, "A-427": {"test_system": "A-427", "settings": "Homo sapiens; A-427 cell line, 72 hours incubation", "summary_of_the_method": "as §1"}, "RL95-2": {"test_system": "RL95-2", "settings": "Homo sapiens; RL95-2 cell line, 72 hours incubation", "summary_of_the_method": "as §1"}, "MIA PaCa-2": {"test_system": "MIA PaCa-2", "settings": "Homo sapiens; MIA PaCa-2 cell line, 72 hours incubation", "summary_of_the_method": "as §1"}, "RKO": {"test_system": "RKO", "settings": "Homo sapiens; RKO cell line, 72 hours incubation", "summary_of_the_method": "as §1"}, "U-118MG": {"test_system": "U-118MG", "settings": "Homo sapiens; U-118MG cell line, 72 hours incubation", "summary_of_the_method": "as §1"}, "LS411N": {"test_system": "LS411N", "settings": "Homo sapiens, LS-411N; LS411N cell line, 72 hours incubation", "summary_of_the_method": "as §1"}, "DoTc2 4510": {"test_system": "DoTc2 4510", "settings": "Homo sapiens; DoTc2 4510 cell line, 72 hours incubation", "summary_of_the_method": "as §1"}, "NCI-H1975": {"test_system": "NCI-H1975", "settings": "Homo sapiens; NCI-H1975 cell line, 72 hours incubation", "summary_of_the_method": "as §1"}, "HuTu 80": {"test_system": "HuTu 80", "settings": "Homo sapiens, HuTu80; HuTu 80 cell line, 72 hours incubation", "summary_of_the_method": "as §1"}, "HT": {"test_system": "HT", "settings": "Homo sapiens; HT cell line, 72 hours incubation", "summary_of_the_method": "as §1"}, "A-673": {"test_system": "A-673", "settings": "Homo sapiens, A673; A-673 cell line, 72 hours incubation", "summary_of_the_method": "as §1"}, "AU565": {"test_system": "AU565", "settings": "Homo sapiens; AU565 cell line, 72 hours incubation", "summary_of_the_method": "as §1"}, "A-172": {"test_system": "A-172", "settings": "Homo sapiens; A-172 cell line, 72 hours incubation", "summary_of_the_method": "as §1"}, "HEC-6": {"test_system": "HEC-6", "settings": "Homo sapiens; HEC-6 cell line, 72 hours incubation", "summary_of_the_method": "as §1"}, "MOLM-13": {"test_system": "MOLM-13", "settings": "Homo sapiens; MOLM-13 cell line, 72 hours incubation", "summary_of_the_method": "as §1"}, "C-33 A": {"test_system": "C-33 A", "settings": "Homo sapiens; C-33 A cell line, 72 hours incubation", "summary_of_the_method": "as §1"}, "HCT 15": {"test_system": "HCT 15", "settings": "Homo sapiens; HCT 15 cell line, 72 hours incubation", "summary_of_the_method": "as §1"}, "SK-BR-3": {"test_system": "SK-BR-3", "settings": "Homo sapiens; SK-BR-3 cell line, 72 hours incubation", "summary_of_the_method": "as §1"}, "SK-N-FI": {"test_system": "SK-N-FI", "settings": "Homo sapiens; SK-N-FI cell line, 72 hours incubation", "summary_of_the_method": "as §1"}, "BT-549": {"test_system": "BT-549", "settings": "Homo sapiens; BT-549 cell line, 72 hours incubation", "summary_of_the_method": "as §1"}}}
{"smiles": "O=C(c1ccc(Oc2ccccc2)cc1Cl)c1c[nH]c2ncnc(N[C@@H]3CC[C@@H](CO)OC3)c12", "note": "[nemtabrutinib]", "values": [{"measurement": "IC50", "setting": "A-204", "value": 6.75, "unit": "µM"}, {"measurement": "IC50", "setting": "TT", "value": 5.33, "unit": "µM"}, {"measurement": "IC50", "setting": "RD", "value": 3.44, "unit": "µM"}, {"measurement": "IC50", "setting": "TCCSUP", "value": 7.7, "unit": "µM"}, {"measurement": "IC50", "setting": "CAL-27", "value": 1.29, "unit": "µM"}, {"measurement": "IC50", "setting": "Kasumi-1", "value": 1.41, "unit": "µM"}, {"measurement": "IC50", "setting": "769-P", "value": 4.01, "unit": "µM"}, {"measurement": "IC50", "setting": "MCF-7", "value": 12.1, "unit": "µM"}, {"measurement": "IC50", "setting": "MV4-11", "value": 1.35, "unit": "µM"}, {"measurement": "IC50", "setting": "5637", "value": 3.46, "unit": "µM"}, {"measurement": "IC50", "setting": "JM-1", "value": 23.8, "unit": "µM"}, {"measurement": "IC50", "setting": "A-427", "value": 1.24, "unit": "µM"}, {"measurement": "IC50", "setting": "RL95-2", "value": 1.18, "unit": "µM"}, {"measurement": "IC50", "setting": "MIA PaCa-2", "value": 2.77, "unit": "µM"}, {"measurement": "IC50", "setting": "RKO", "value": 1.22, "unit": "µM"}, {"measurement": "IC50", "setting": "U-118MG", "value": 12.9, "unit": "µM"}, {"measurement": "IC50", "setting": "LS411N", "value": 0.767, "unit": "µM"}, {"measurement": "IC50", "setting": "DoTc2 4510", "value": 1.41, "unit": "µM"}, {"measurement": "IC50", "setting": "NCI-H1975", "value": 2.31, "unit": "µM"}, {"measurement": "IC50", "setting": "HuTu 80", "value": 1.68, "unit": "µM"}, {"measurement": "IC50", "setting": "HT", "value": "> 31.6", "unit": "µM"}, {"measurement": "IC50", "setting": "A-673", "value": 3.6, "unit": "µM"}, {"measurement": "IC50", "setting": "AU565", "value": 3.26, "unit": "µM"}, {"measurement": "IC50", "setting": "A-172", "value": 10.6, "unit": "µM"}, {"measurement": "IC50", "setting": "HEC-6", "value": 22.3, "unit": "µM"}, {"measurement": "IC50", "setting": "MOLM-13", "value": 1, "unit": "µM"}, {"measurement": "IC50", "setting": "C-33 A", "value": 1.32, "unit": "µM"}, {"measurement": "IC50", "setting": "HCT 15", "value": 5.78, "unit": "µM"}, {"measurement": "IC50", "setting": "SK-BR-3", "value": 1.85, "unit": "µM"}, {"measurement": "IC50", "setting": "SK-N-FI", "value": 3.94, "unit": "µM"}, {"measurement": "IC50", "setting": "BT-549", "value": 8.07, "unit": "µM"}]}
